Biological target: HsClpP (Homo sapiens, UniProt Q16740)
Assay: HsClpP enzyme hydrolysis of short peptide substrate AC-WLA-AMC
Conditions: promoting hydrolysis of short peptide substrate by HsClpP, relative to blank control

Sequence of HsClpP (Q16740 57-277): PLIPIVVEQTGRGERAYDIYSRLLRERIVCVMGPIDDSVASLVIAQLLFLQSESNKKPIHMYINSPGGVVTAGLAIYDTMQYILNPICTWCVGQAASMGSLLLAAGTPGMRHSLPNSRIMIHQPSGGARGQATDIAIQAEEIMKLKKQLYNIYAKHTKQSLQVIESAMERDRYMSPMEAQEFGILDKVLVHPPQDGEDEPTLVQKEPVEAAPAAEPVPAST

SMILES	Regulatory efficacy 1 μM	Regulatory efficacy 10 μM
COC(=O)c1cccc(CN2CCn3c2nc(=O)c2c3C(F)(F)CN(Cc3cccc(C#N)c3)C2)c1 [Compound 51]	+ +	+ +
N#Cc1cccc(CN2Cc3c(n4c(nc3=O)N(Cc3ccccc3)CC4)C(F)(F)C2)c1 [Compound 52, 3-((3-benzyl-9,9-difluoro-5-oxo-2,3,6,7,8,9-hexahydroimidazo[1,2-a]pyrido[3,4-e]pyrimidin-7(6H)-yl)methyl)benzonitrile]	+ +	+ +
N#Cc1cccc(CN2Cc3c(n4c(nc3=O)N(Cc3cccc(F)c3)CC4)C(F)(F)C2)c1 [Compound 53, 3-((3-(3-fluorobenzyl)-9,9-difluoro-5-oxo-2,3,6,7,8,9-hexahydroimidazo[1,2-a]pyrido[3,4-e]pyrimidin-7(6H)-yl)methyl)benzonitrile]	+ +	+ +
N#Cc1cccc(CN2Cc3c(n4c(nc3=O)N(Cc3ccc(F)c(Br)c3)CC4)C(F)(F)C2)c1 [Compound 54, 3-((3-(3-bromo-4-fluorobenzyl)-9,9-difluoro-5-oxo-2,3,6,7,8,9-hexahydroimidazo[1,2-a]pyrido[3,4-e]pyrimidin-7(6H)-yl)methyl)benzonitrile]	+ +	+ +
CC(C)CCN1CCn2c1nc(=O)c1c2C(F)(F)CN(Cc2cccc(C#N)c2)C1 [Compound 55, 3-((9,9-difluoro-3-isopentyl-5-oxo-2,3,6,7,8,9-hexahydroimidazo[1,2-a]pyrido[3,4-e]pyrimidin-7(6H)-yl)methyl)benzonitrile]	+ +	+ +
Cc1ccc(CN2CCn3c2nc(=O)c2c3C(F)(F)CN(Cc3cccc(C#N)c3)C2)cc1 [Compound 56, 3-((9,9-difluoro-3-(4-methylbenzyl)-5-oxo-2,3,6,7,8,9-hexahydroimidazo[1,2-a]pyrido[3,4-e]pyrimidin-7(6H)-yl)methyl)benzonitrile]	+ +	+ +
N#Cc1cccc(CN2Cc3c(n4c(nc3=O)N(Cc3ccc(Cl)c(Cl)c3)CC4)C(F)(F)C2)c1 [Compound 57, 3-((9,9-difluoro-3-(3,4-dichlorobenzyl)-5-oxo-2,3,6,7,8,9-hexahydroimidazo[1,2-a]pyrido[3,4-e]pyrimidin-7(6H)-yl)methyl)benzonitrile]	+ +	+ +
Cc1cccc(CN2CCn3c2nc(=O)c2c3C(F)(F)CN(Cc3cccc(C#N)c3)C2)c1 [Compound 58, 3-((9,9-difluoro-3-(3-methylbenzyl)-5-oxo-2,3,6,7,8,9-hexahydroimidazo[1,2-a]pyrido[3,4-e]pyrimidin-7(6H)-yl)methyl)benzonitrile]	+ +	+ +
O=c1nc2n(c3c1CN(Cc1ccccc1)CC3)CCN2Cc1cccc(Br)c1 [Compound 59, 7-Benzyl-3-(3-bromobenzyl)-2,3,6,7,8,9-hexahydroimidazo[1,2-a]pyrido[3,4-e]pyrimidin-5(1H)-one]	+ +	+ +
O=c1nc2n(c3c1CN(Cc1ccccc1)CC3)CCN2Cc1ccccc1Cl [Compound 61, 7-Benzyl-3-(2-chlorobenzyl)-2,3,6,7,8,9-hexahydroimidazo[1,2-a]pyrido[3,4-e]pyrimidin-5(1H)-one]	+ +	+ +
O=c1nc2n(c3c1CN(Cc1ccccc1)CC3)CCN2Cc1ccccc1F [Compound 62, 7-Benzyl-3-(2-fluorobenzyl)-2,3,6,7,8,9-hexahydroimidazo[1,2-a]pyrido[3,4-e]pyrimidin-5(1H)-one]	+ +	+ +
O=c1nc2n(c3c1CN(Cc1ccccc1)CC3)CCN2Cc1cccc(F)c1 [Compound 63, 7-Benzyl-3-(3-fluorobenzyl)-2,3,6,7,8,9-hexahydroimidazo[1,2-a]pyrido[3,4-e]pyrimidin-5(1H)-one]	+ (+ indicating that the increased efficacy is less than 50% of the blank control group)	+ +
COc1cccc(CN2CCn3c2nc(=O)c2c3CCN(Cc3ccccc3)C2)c1 [Compound 64, 7-Benzyl-3-(3-methoxybenzyl)-2,3,6,7,8,9-hexahydroimidazo[1,2-a]pyrido[3,4-e]pyrimidin-5(1H)-one]	+ +	+ +
CCN1CCn2c1nc(=O)c1c2C(F)(F)CN(Cc2ccccc2)C1 [Compound 65, 7-Benzyl-3-ethyl-9,9-difluoro-2,3,6,7,8,9-hexahydroimidazo[1,2-a]pyrido[3,4-e]pyrimidin-5(1H)-one]	+ (+ indicating that the increased efficacy is less than 50% of the blank control group)	+ +
O=c1nc2n(c3c1CN(Cc1ccccc1)CC3(F)F)CCN2CC1CCCCC1 [Compound 66, 7-Benzyl-3-(cyclohexylmethyl)-9,9-difluoro-2,3,6,7,8,9-hexahydroimidazo[1,2-a]pyrido[3,4-e]pyri midin-5(1H)-one]	+ +	+ +
O=c1nc2n(c3c1CN(Cc1ccccc1)CC3(F)F)CCN2c1ccccc1 [Compound 67, 7-Benzyl-9,9-difluoro-3-phenyl-2,3,6,7,8,9-hexahydroimidazo[1,2-a]pyrido[3,4-e]pyrimidin-5(1H)-one]	+ +	+ +
O=c1nc2n(c3c1CN(Cc1ccccc1)CC3(F)F)CCN2Cc1ccccc1 [Compound 68, 3,7-Dibenzyl-9,9-difluoro-2,3,6,7,8,9-hexahydroimidazo[1,2-a]pyrido[3,4-e]pyrimidin-5(1H)-one]	+ +	+ +
O=c1nc2n(c3c1CN(Cc1ccccc1)CC3(F)F)CCN2CCc1ccccc1 [Compound 69, 7-Benzyl-9,9-difluoro-3-phenylethyl-2,3,6,7,8,9-hexahydroimidazo[1,2-a]pyrido[3,4-e]pyrimidin-5(1H)-one]	+ +	+ +
O=c1nc2n(c3c1CN(Cc1ccccc1)CC3(F)F)CCN2Cc1ccco1 [Compound 70, 7-Benzyl-9,9-difluoro-3-(furan-2-ylmethyl)-2,3,6,7,8,9-hexahydroimidazo [1,2-a]pyrido[3,4-e]pyrimidin-5(1H)-one]	+ (+ indicating that the increased efficacy is less than 50% of the blank control group)	+ +
Cc1ccc(CN2CCn3c2nc(=O)c2c3C(F)(F)CN(Cc3ccccc3)C2)cc1 [Compound 72, 7-Benzyl-9,9-difluoro-3-(4-methylbenzyl)-2,3,6,7,8,9-hexahydroimidazo[1,2-a]pyrido[3,4-e]pyrimid in-5(1H)-one]	+ +	+ +
O=c1nc2n(c3c1CN(Cc1ccccc1)CC3(F)F)CCN2Cc1ccc(C(F)(F)F)cc1 [Compound 73, 7-Benzyl-9,9-difluoro-3-(4-(trifluoromethyl)benzyl)-2,3,6,7,8,9-hexahydroimidazo[1,2-a]pyrido[3,4-e]pyrimidin-5(1H)-one]	+ +	+ +

— US20240287071A1, “CLASS OF IMIDAZOLIDINOPYRIMIDONE COMPOUNDS AND USE THEREOF IN TREATMENT OF HSCLPP-MEDIATED DISEASES” (SICHUAN UNIVERSITY, priority 2021, published 2024)
